Assay results published in PubChem BioAssay (NCI).
“And” between values parts separate entries of the source, which are not always exact repeats. Equal entries are not always repeated.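 Values below derive from 48-hour exposures of cells grown in 96-well plates, with endpoints linearly interpolated between the two concentrations bracketing the appropriate inhibition level. At the GI50, growth is halved. At the TGI there is no net growth.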

Columns and labels:
Test in all cases: NCI anticancer screen, dose series, 48 h
EKVX NSCLC = tested on: EKVX NSCLC
IGROV1 ovarian = tested on: IGROV1 ovarian
M14 melanoma = tested on: M14 melanoma
MCF7 breast = tested on: MCF7 breast
MDA-MB-435 = tested on: MDA-MB-435
NCI-H23 lung = tested on: NCI-H23 lung
NCI-H522 lung = tested on: NCI-H522 lung
OVCAR-3 ovarian = tested on: OVCAR-3 ovarian
SK-MEL-5 melanoma = tested on: SK-MEL-5 melanoma
SW-620 colon = tested on: SW-620 colon

Compound | TGI (EKVX NSCLC) | TGI (IGROV1 ovarian) | TGI (M14 melanoma) | TGI (MCF7 breast) | TGI (MDA-MB-435) | TGI (NCI-H23 lung) | TGI (NCI-H522 lung) | TGI (OVCAR-3 ovarian) | TGI (SK-MEL-5 melanoma) | TGI (SW-620 colon) | GI50 (EKVX NSCLC) | GI50 (IGROV1 ovarian) | GI50 (M14 melanoma) | GI50 (MCF7 breast) | GI50 (MDA-MB-435) | GI50 (NCI-H23 lung) | GI50 (NCI-H522 lung) | GI50 (OVCAR-3 ovarian) | GI50 (SK-MEL-5 melanoma) | GI50 (SW-620 colon)
CCCC(=O)NC1=C(Cl)C(=O)c2ccccc2C1=O | 16.8 µM | 17.9 µM | 13 µM | 7.39 µM | 13.3 µM | 10.3 µM | 2.37 µM | 8.01 µM | 6.85 µM | 6.36 µM |  |  |  |  |  |  |  |  |  | 
CCOC(=O)c1sc(-c2ccc(OS(=O)(=O)c3ccc(Br)s3)c(C=O)c2)nc1C | 54.1 µM | 12.7 µM | 11.3 µM | 8.97 µM | 6.79 µM | 13.7 µM | 10.5 µM | 6.71 µM | 3.18 µM | 12.8 µM | 14.3 µM | 3.31 µM | 3.22 µM | 2.86 µM | 2.47 µM | 3.37 µM | 2.96 µM | 2.48 µM | 1.74 µM | 3.28 µM
S=C(Nc1ccc(Br)cc1)Nc1ccc(Br)cc1 | > 100 µM | > 100 µM | > 100 µM | > 100 µM | > 100 µM | > 100 µM | 98.6 µM | > 100 µM | > 100 µM | > 100 µM | 3.72 µM | 7.41 µM | 8.3 µM | 3.87 µM | 6.04 µM | 3.47 µM | 2.92 µM | 3.58 µM | 5.4 µM | 4.43 µM
Fc1ccc2[nH]cc(-c3nonc3-c3c[nH]c4ccc(Br)cc34)c2c1 | 6.01 µM | 18.3 µM | 4.98 µM | 5.66 µM | 12.3 µM | 5.86 µM | 4.47 µM | 5.43 µM | 4.25 µM | 3.84 µM | 1.88 µM | 3.41 µM | 1.87 µM | 2.19 µM | 3.27 µM | 1.95 µM | 1.85 µM | 2.07 µM | 1.88 µM | 1.76 µM
Cc1cc(=O)oc2cc(OC(=O)N(C)C)c(Cl)cc12 | > 100 µM | > 100 µM | > 100 µM | > 100 µM | > 100 µM | > 100 µM | > 100 µM | > 100 µM | > 100 µM | > 100 µM |  |  |  |  |  |  |  |  |  | 
CC(=O)OCC1OC(n2c(-c3ccc(Cl)cc3)ccc(C#N)c2=S)C(OC(C)=O)C(OC(C)=O)C1OC(C)=O (stereo not given) | > 82.9 µM and 80.1 µM | > 100 µM | > 100 µM | > 100 µM | > 100 µM | > 100 µM | > 100 µM | > 100 µM | > 100 µM | > 100 µM |  | 44.3 µM and > 100 µM |  |  |  | 29.3 µM and > 100 µM | 27.8 µM and 61.6 µM | 98.7 µM and 48.1 µM | > 66.1 µM and 32.2 µM | 
CCCNNC(=O)/C=C/c1ccc(CNCCc2c(C)[nH]c3ccccc23)cc1 | 3.73 µM | 0.216 µM | 1.94 µM | 3.6 µM | 0.464 µM | 3.5 µM | 4.19 µM | 0.161 µM | 0.122 µM | 0.237 µM | 0.074 µM | < 0.0339 µM | 0.023 µM | 0.0252 µM | 0.0494 µM | 0.0545 µM | 0.0447 µM | 0.0433 µM | 0.0447 µM | 0.0177 µM
